Four compounds from paper PMC8750417, “Intracellular Amplifiers of Reactive Oxygen Species Affecting Mitochondria as Radiosensitizers” (Cancers, 2021) can be followed below.

Structures are written as SMILES. Read-outs that look alike come from different tables or passages of the source.

The test system of one assay is Jurkat cells. Nature of the assay: Jurkat flow cytometry (AnnexinA5/PI viability, DiIC1(5) MMP, monobromobimane GSH, cell cycle). The conditions noted are these: for IC50: 48 h incubation. Type of assay: cell-based, human. Here is the method:
Jurkat cells The cells were counted in MUSE Cell Analyzer using MUSE® Count &Viability Assay Kit (Merck-Millipore, Billerica, MA, USA) and adjusted to a density of 1.0 x 10^5/ml in RPMI 1640 medium (with 10% FCS and 1% glutamine). 9.000 cells per well per 90 µL were seeded into 96 well culture plates. The 30 mM prodrug stock solutions in DMSO were diluted to 300 µM, 100 µM, 30 µM and 10 µM in cell culture medium and 10 µL of the dilutions was pipetted to the cells, receiving final test concentrations of 30 µM, 10 µM, 3 µM and 1 µM. Every concentration was tested in triplicates. Cells with corresponding amounts of DMSO served as negative controls. After 48 h cells were mixed and 25 µL of […]
the cell suspension was incubated with 200 µL of freshly prepared staining solution, consisting of AnnexinA5-Fitc (1 µL), 1,1′,3,3,3′,3′-hexamethylindodicarbocyanine iodide (DiIC1(5), 0.4 µL) (both from ThermoFisher Scientific, Waltham, MA, USA), propidium iodide (PI, 67 ng) and monobromobimane (MBB, 33 µM, both from Sigma-Aldrich, Taufkirchen, Germany) per 1 ml Ringer’s solution (Fresenius Kabi AG, Bad Homburg, Germany). Cells were incubated for 20 min at 4°C and then analyzed in Gallios cytofluorometer™ (Beckman Coulter, Fullerton, CA, USA). Fitc and propidium iodide were excited at 488 nm; Fitc fluorescence was recorded on the FL1 sensor (525/38 nm band pass, BP) and propidium iodide fluorescence was detected on FL3 sensor (620/30 nm BP), DiIC1(5) fluorescence was excited at 638 nm and detected on FL6 sensor at 675/20 nm BP, and monobromobimane fluorescence was excited at 405 nm and detected on FL9 sensor at 430/40 nm BP. To eliminate any fluorescence bleed-through, electronic compensation was used. Data were analyzed employing Kaluza™ software Version 1.2 (Beckman Coulter, Fullerton, CA, USA) and processed in Microsoft Excel (Figures S51-S54, Table S5). Cells negative for Annexin A5-Fitc and propidium iodide were considered viable. IC50 values were determined by fitting the % values of Ax-PI- cells versus drug concentration with a sigmoidal curve using GraphPad Prism software. Reduced glutathione (an intracellular thiol) can be detected by monobromobimane, a dye that becomes fluorescent after non-enzymatic binding to thiols.[S3] For analysis of amount of mitochondrial membrane potential or reduced glutathione the mean fluorescence index (MFI) was determined from viable cells by gating on Ax -PI- events.
Table S5. Effects of the prodrugs on the viability of Jurkat cell lines (IC50 values) after 48
A general note: In flow cytometry, cells or beads pass a laser one at a time.

The subject of the next assay is SAS cells. The assay is described as follows: Clonogenic assay (colony formation), SAS. Type of assay: cell-based, human. The following applies: for Relative clonogenic survival: 48 h exposure, untreated control = 1. The method, then: Optimization of concentration of prodrugs and controls / clonogenic assay The clonogenic survival assay is a classical approach to monitor radioresponse and drug- induced radiosensitization in cancer cells. We therefore initially determined whether the supposedly non -toxic drug concentrations defined for combinatorial treatment testing affect single cell colony formation capacity. For this pu rpose, exponentially growing SAS and FaDu cells were dissociated, single cell suspensions were prepared in standard DMEM and seeded in 6 -well plates at […]
defined low density (150-300 cells in 1 ml per well). After 8 h of incubation to allow cell adherence, 50% of the supernatant was exchanged by media containing the respective prodrugs at 2x concentration and exposed for 48 h. Treatment was then terminated by medium removal, and cells were allowed to grow for a period of ≥5-6 cell divisions estimated from the cell line-specific doubling times of the respective untreated controls (~7 days for SAS and ~10 days for FaDu cells). Control cells were always handled in parallel to the treated cells and thus exposed to the corresponding DMSO concentration(s). After the defined growth intervals, cells were fixed, stained and colonies of >50 cells were manually counted at low magnification to calculate plating efficiencies as the number of counted colonies relative to the number of seeded cells. Drug effect on clonogenic survival was then estimated by normalizing the colony formation of control cells to 1 (Table S9). […]

The next assay deals with human fibroblasts (HF). Nature of the assay: Cytotoxicity MTT assay, human fibroblasts. Type of assay: cell-based. The conditions noted are these: read-out: 50% cell survival (EC50). Here is the method: (§1) Study of synergy of prodrugs with radiotherapy for SAS and FaDu cells
(§2) Optimization of concentration of prodrugs and controls / MTT assay
(§3) The MTT assay was also applied to assess the impact of various drugs (0.01-100 µM) on the viability of the two human head and neck squamous carcinoma cell (HNSCC) lines SAS and FaDu as well as retinal pigment epithelial ARPE-19 cells and human fibroblasts (HF). Cells were seeded into 96-well plates at concentrations of 4000 and 2000 cells per […]
(§4) h before exposure to the drugs. All drug dilutions were prepared from 20 mM stock solutions in DMSO. The final DMSO concentration was set to 0.5% in all sample s including control. After completion of the treatment, the wells were processed according to the routine MTT protocol as described above; the formazan absorbance was then measured on a Biotek Epoch Microplate Spectrophotometer at 590 nm and corrected for the background signal at 620 nm. N≥3 independent experiments were performed for each drug candidate, cell type and treatment interval. Cell survival was recorded as function of the drug concentration, and dose-response curves were fitted with the Boltzmann equation where appropriate. We calculated the half-maximal response (EC50) as well as the EC20 (80% survival) according to the line curve (see Tables S6-S8). EC20-values were used as a basis to select the compound-specific non-toxic drug concentrations for combination with radiotherapy.
A general note: Formazan colour is commonly taken as a measure of viable cells.

The next assay concerns ARPE-19 cells. Nature of the assay: Cytotoxicity MTT assay, ARPE-19. The class given is cell-based. The following applies: read-out: 50% cell survival (EC50). The method, then: as §1, §2, §3, §4

By IC50 is commonly meant the concentration at which inhibition is half-maximal. Read a low IC50 as higher potency. What is called EC50 is the concentration giving half of the maximal effect. In turn, `CC1(C)OB(c2ccc(COC(=O)N(Cc3cccc(CN4CCCCC4)c3)[c-]3cccc3)cc2)OC1(C)C.[Fe+2].c1cc[cH-]c1` [5b] displayed an IC50 in the assay with Jurkat cells of 7.2 ± 0.1 µM. Also, the Relative clonogenic survival in the assay with SAS cells (0.5 µM) worked out at 0.96 ± 0.06; with SAS cells (1 µM), 0.76 ± 0.06; in the assay with SAS cells (2.5 µM), 0.36 ± 0.15. Moreover, in the assay on SAS cells (10-fold lower dose than 25 µM), the “colony formation reduced to” value is 36 ± 15%. In addition, the EC50 with human fibroblasts (HF) (24h) came to 35.5 ± 14.9 µM; with human fibroblasts (HF) (48h), 20.8 ± 4.6 µM; in the assay on ARPE-19 cells (ARPE-19, 24h), 40.4 ± 2.5 µM; with ARPE-19 cells (ARPE-19, 48h) it was 26.6 ± 8.3 µM.

With `CCOC(=O)CCCCCn1cc(CN(C(=O)OCc2ccc(B3OC(C)(C)C(C)(C)O3)cc2)[c-]2cccc2)nn1.[Fe+2].c1cc[cH-]c1` [compound 1], in the assay on Jurkat cells (48 h), the “effect on MMP” value was “slight increase” and the “effect on intracellular GSH amount” value is recorded as “slight increase”. In the assay on Jurkat cells, this compound yielded an IC50 of 30 ± 4 µM.

`CC1(C)OB(c2ccc(COC(=O)N(Cc3cn(Cc4ccc(Cn5cc(Cc6ccccc6)nn5)cc4)nn3)[c-]3cccc3)cc2)OC1(C)C.[Fe+2].c1cc[cH-]c1` [2c]: the “effect on MMP” value with Jurkat cells (48 h) is reported as “decrease”. Also, the “effect on cell cycle” value in the assay with Jurkat cells (48 h) is recorded as “cell-cycle arrest in the G0/G1 phase”. In the assay with Jurkat cells (48 h), the “effect on intracellular GSH amount” value is “unaffected”. For the same compound, the “mechanism of cell death” value in the assay on Jurkat cells (48 h, Annexin A5/PI) is given as “mainly via necrosis”. The compound further registered an IC50 in the assay with Jurkat cells of 5 ± 2 µM. The results for the Relative clonogenic survival with SAS cells (10 µM) and in the assay with SAS cells (25 µM) were 0.78 ± 0.13 and 0.70 ± 0.10, respectively. Moreover, the “growth of colonies reduced to” value in the assay with SAS cells (25 µM) was determined as 70 ± 10%. Further, the EC50 was more than 50 µM in the assay on human fibroblasts (HF) (24h); more than 50 µM with human fibroblasts (HF) (48h); more than 50 µM in the assay with ARPE-19 cells (ARPE-19, 24h); more than 50 µM in the assay with ARPE-19 cells (ARPE-19, 48h).

The compound `[Fe+2].c1cc[cH-]c1.c1cc[cH-]c1` [compound 6, ferrocene] had an IC50 in the assay with Jurkat cells of more than 100 µM. This compound also yielded a Relative clonogenic survival in the assay with SAS cells (25 µM) of 0.88 ± 0.10. In addition, the EC50 was more than 50 µM in the assay with human fibroblasts (HF) (24h); more than 50 µM in the assay on human fibroblasts (HF) (48h); more than 50 µM in the assay on ARPE-19 cells (ARPE-19, 24h); more than 50 µM with ARPE-19 cells (ARPE-19, 48h).
